Results reported in patent US9987333B2, “Method for suppressing malignant tumor metastasis” (Shionogi & Co., Ltd., priority 2012, dated 2018).

Experiments:
Mouse melanoma B16-F10 [1] = test: Tail vein injection metastasis test, mouse melanoma B16-F10, CDDP pretreatment with angiotensin II receptor antagonists (Example 2); assay type: in vivo, mice; conditions: 14 days; for exacerbation of lung metastasis caused by CDDP: oral, with CDDP 5 mg/kg, valsartan 40, losartan 30, olmesartan medoxomil 5, azilsartan 10, candesartan cilexetil 8, irbesartan 100 mg/kg
Method: Eight-week-old male C57BL6 mice (purchased from Japan SLC, Inc.) were used. Mouse melanoma B16-F10 was purchased from ATCC, and cultured in DMEM (Life Technologies Corp.) containing 10% FCS under 5% CO2 at 37° C. The cells in a subconfluent state were treated with EDTA-trypsin, centrifuged, and then suspended in serum free DMEM so as to be 5×10^6 cells/mL. The melanoma cell suspension (100 μL/mouse, […]) was injected to the tail vein of the mice. As pretreatment, 5 mg/kg of cisplatin (CDDP) was injected to the tail vein of the mice 2 days before the injection of the melanoma cells into the tail vein. As an angiotensin II receptor antagonist, used were valsartan (trade name: Diovan made by Novartis Pharma K.K.), losartan (trade name: Nu-Lotan made by MSD K.K.), olmesartan medoxomil (trade name: Olmetecmade by Daiichi Sankyo Co., Ltd.), azilsartan (trade name: Azilva made by Takeda Pharmaceutical Co., Ltd.), candesartan cilexetil (trade name: Blopress made by Takeda Pharmaceutical Co., Ltd.), and irbesartan (trade name: Avapro made by Sumitomo Dainippon Pharma Co., Ltd.). To the angiotensin II receptor antagonist group, a 0.5% methylcellulose aqueous solution prepared so as to contain valsartan (40 mg/kg), losartan (30 mg/kg), olmesartan medoxomil (5 mg/kg), azilsartan (10 mg/kg), candesartan cilexetil (8 mg/kg), or irbesartan (100 mg/kg) was orally given for 4 days before the start of the experiment (before the injection of tumor cells to mice). After the injection of tumor cells, the oral intake of methylcellulose aqueous solutions containing telmisartan or pitavastatin in the above doses in the angiotensin II receptor antagonist group and the pitavastatin group was continued until the end of the experiment. To the control group, a 0.5% methylcellulose aqueous solution not containing any of the agents was orally given before the start of the experiment. The sample size of each group was n=5. The condition of the lung metastasis of the tumor cells 2 weeks (14 days) after the tumor cell injection was observed.

tumor = conditions: Non Patent Literature 27; cited from earlier work
[2] = system: Human lung arterial microvascular endothelial cells; test: Adhesion of A549-GFP human lung cancer cells to human lung arterial microvascular endothelial cells in co-culture (Example 3); assay type: cell-based; conditions: 3 h co-culture
Method: Human lung arterial microvascular endothelial cells were cultured to confluence, losartan was added thereto (to a final concentration of 5×10^−6 M), and 2 hours later, phosphate buffered saline (PBS) or cisplatin (CDDP) was added (to a final concentration of 5 μM). An hour later, the culture medium was replaced with a fresh culture medium (Medium 199 containing 1% BSA). To this, a suspension of fluorescently-labeled A549 human lung cancer cells (1×10^5 cells) was added, and the cells were co-cultured for 3 hours. After the co-culture, non-adherent cancer cells were washed out with cold PBS, and then 15-minute fixation with 4% formalin was performed. […] In FIG. 9A, spots which appear gray (actually green) are fluorescently-labeled A549-GFP human lung cancer cells. In FIG. 9B, white bars are for the control (without losartan pretreatment), and black bars are for the cases with losartan pretreatment. The vertical axis indicates the number of cancer cells that adhered (*: P<0.05).
Human lung arterial microvascular endothelial cells (manufactured by Lonza Japan) were cultured to confluence, losartan was added thereto (to a final concentration of 5×10^−6 M), and 2 hours later, phosphate buffered saline (PBS) or cisplatin (CDDP) was added (to a final concentration of 5 μM). […]

renal cell carcinoma = conditions: Non Patent Literature 23; cited from earlier work
colon cancer cells = conditions: Non Patent Literature 24; cited from earlier work
Mouse melanoma B16-F10 [3] = test: Tail vein injection metastasis test, mouse melanoma B16-F10 (Example 1); assay type: in vivo, mice
Method: Six-week-old male C56BL/6N mice (purchased from Japan SLC, Inc.) were used. Mouse melanoma B16-F10 was purchased from ATCC, and cultured in DMEM (Life Technologies Corp.) containing 10% FCS under 5% CO2 at 37° C. The cells in a subconfluent state were treated with EDTA-trypsin, centrifuged, and then suspended in serum free DMEM so as to be 5×10^6 cells/mL. The melanoma cell suspension (100 μL/mouse, 5×10^5 cells) was injected to the tail vein of the mice.
For the CDDP group, 5 mg/kg of CDDP was injected, as pretreatment, to the tail vein of the mice 2 days before the injection of the melanoma cells into the tail vein. For the control group, an osmotic pump containing 0.9% physiological saline was subcutaneously implanted in the back of each mouse on the day before the injection of the melanoma cells into the tail vein. Similarly, for the adrenomedullin group, an osmotic pump containing adrenomedullin prepared for administration at 0.05 μg/kg/min was subcutaneously implanted into each mouse, and for the ghrelin group, an osmotic pump containing ghrelin prepared for administration at 0.08 μg/kg/min was subcutaneously implanted into each mouse. The tail vein injection of the melanoma cells was performed as above and the drug administration was continued for 2 weeks. The condition of the lung metastasis of the tumor cells 2 weeks after the tumor cell injection was observed (FIG. 1).
To the angiotensin II receptor antagonist group, a 0.5% methylcellulose aqueous solution prepared so as to contain 2 mg/kg or 8 mg/kg of telmisartan was orally given for 4 days before the start of the experiment (before the injection of tumor cells to mice), and to the pitavastatin group, a 0.5% methylcellulose aqueous solution prepared so as to contain 20 mg/kg of pitavastatin was orally given for the same period. After the injection of tumor cells, the oral intake of methylcellulose aqueous solutions containing telmisartan or pitavastatin in the above doses in the angiotensin II receptor antagonist group and the pitavastatin group was continued until the end of the experiment. To the control group, a 0.5% methylcellulose aqueous solution not containing any of the agents was orally given before the start of the experiment. Also, as reference example, angiotensin II was administered at 1 μg/kg/min, and then the experiment was conducted in the same way. The sample size of each group was n=5.
In contrast, in both of the telmisartan 2 mg/kg group and the telmisartan 8 mg/kg group, the exacerbation by CDDP was suppressed. The telmisartan 2 mg/kg (CDDP group) and the telmisartan 8 mg/kg (CDDP group) shown in FIGS. 3 and 4 are groups to which 2 mg/kg or 8 mg/kg of telmisartan was given in the manner described above before CDDP was injected as pretreatment. The pitavastatin (CDDP group) is the group to which pitavastatin was given in the manner described above before CDDP was injected as pretreatment.

[4] = system: human umbilical vein endothelial cells (HUVECs); conditions: Non Patent Literature 29; cited from earlier work
E select in = conditions: Non Patent Literature 29; cited from earlier work

For `CCOc1nc2cccc(C(=O)OC(C)OC(=O)OC3CCCCC3)c2n1Cc1ccc(-c2ccccc2-c2nn[nH]n2)cc1` (stereo not shown) [candesartan cilexetil], which “exacerbation of lung metastasis caused by CDDP” value (Mouse melanoma B16-F10 [1]) is on record?
Its value is “significantly suppressed”.

What about the “angiogenesis and metastasis of a tumor” value (tumor) of the same compound?
The value was “suppressed”.

With `CCCCc1nc(Cl)c(CO)n1Cc1ccc(-c2ccccc2-c2nn[nH]n2)cc1` [losartan] as the compound, how does the “adhesion of cancer cells to the vascular endothelial cells” value ([2]; losartan 5×10^−6 M 2 hours before 5 μM CDDP pretreatment) read?
The value was “significantly suppressed”.

And the “exacerbation of lung metastasis caused by CDDP” value (Mouse melanoma B16-F10 [1])?
The value was “significantly suppressed”.

And the “lung metastasis of renal cell carcinoma increased by cyclosporin (Cs)” value (renal cell carcinoma)?
The value was “suppressed”.

And the “liver metastasis of colon cancer cells” value (colon cancer cells)?
Its value is “suppressed”.

Which “exacerbation of lung metastasis by CDDP” value (Mouse melanoma B16-F10 [3]; telmisartan 2 mg/kg orally before CDDP (5 mg/kg) pretreatment, 14 days) does the source give for `CCCc1nc2c(C)cc(-c3nc4ccccc4n3C)cc2n1Cc1ccc(-c2ccccc2C(=O)O)cc1` [telmisartan] here?
Its value is “suppressed”.

And the “exacerbation of lung metastasis by CDDP” value (Mouse melanoma B16-F10 [3]; telmisartan 8 mg/kg orally before CDDP (5 mg/kg) pretreatment, 14 days)?
The value was “suppressed”.

And the “lung metastasis of melanoma (number of nodules formed in the lungs)” value (Mouse melanoma B16-F10 [3]; telmisartan 8 mg/kg orally, alone, 14 days after tumor cell injection, vs control)?
The value was “significantly suppressed”.

Which “exacerbation of lung metastasis caused by CDDP” value (Mouse melanoma B16-F10 [1]) does the source give for `CCCc1nc(C(C)(C)O)c(C(=O)OCc2oc(=O)oc2C)n1Cc1ccc(-c2ccccc2-c2nnn[nH]2)cc1` [olmesartan medoxomil] here?
The value was “significantly suppressed”.

Which “exacerbation of lung metastasis caused by CDDP” value (Mouse melanoma B16-F10 [1]) does the source give for `CCOc1nc2cccc(C(=O)O)c2n1Cc1ccc(-c2ccccc2-c2nc(=O)o[nH]2)cc1` [azilsartan] here?
The value was “significantly suppressed”.

Which “exacerbation of lung metastasis caused by CDDP” value (Mouse melanoma B16-F10 [1]) does the source give for `CCCCC(=O)N(Cc1ccc(-c2ccccc2-c2nnn[nH]2)cc1)[C@H](C(=O)O)C(C)C` [valsartan] here?
Its value is “significantly suppressed”.

With `CCCCC1=NC2(CCCC2)C(=O)N1Cc1ccc(-c2ccccc2-c2nnn[nH]2)cc1` [irbesartan] as the compound, how does the “exacerbation of lung metastasis caused by CDDP” value (Mouse melanoma B16-F10 [1]) read?
Its value is “significantly suppressed”.

For `O=C(O)C[C@H](O)C[C@H](O)/C=C/c1c(C2CC2)nc2ccccc2c1-c1ccc(F)cc1` [pitavastatin], which “exacerbation of the lung metastasis by CDDP” value (Mouse melanoma B16-F10 [3]; pitavastatin 20 mg/kg orally before CDDP (5 mg/kg) pretreatment, 14 days) is on record?
Its value is “significantly suppressed”.

Which “adhesion of colon cancer cells to human umbilical vein endothelial cells (HUVECs)” value [4] does the source give for `CC[C@H](C)C(=O)O[C@H]1C[C@@H](C)C=C2C=C[C@H](C)[C@H](CC[C@@H]3C[C@@H](O)CC(=O)O3)[C@H]21` [lovastatin] here?
Its value is “inhibits”.

And the “E select in expression” value (E select in)?
The value was “inhibits”.

With `[NH2][Pt]([NH2])([Cl])[Cl]` [CDDP, cisplatin] as the compound, how does the “number of cancer cells adhered to the vascular endothelial cells” value ([2]; 1-hour pretreatment with 5 μM CDDP) read?
Its value is “increased”.

What about the “lung metastasis of melanoma (number of nodules formed in the lungs)” value (Mouse melanoma B16-F10 [3]; CDDP 5 mg/kg tail vein 2 days before melanoma injection, compared to the control group) of the same compound?
The value was “significantly increased”.

What about the “tumor metastasis (number of lung nodules)” value (Mouse melanoma B16-F10 [1]; CDDP 5 mg/kg tail vein 2 days before melanoma injection, vs control) of the same compound?
Its value is “augmented”.
